Usually DC50 stands for the concentration at which degradation of the target reaches its halfway point.

Consider eleven compounds from US20230295197A1, “STAT5 and STAT6 Degraders and Uses Thereof” (REGENTS OF THE UNIVERSITY OF MICHICAN, priority 2022, published 2023).

SMILES strings stand for the structures. Like-named read-outs stand apart in the source and are kept apart here. Bounds are passed on as bounds.

This experiment deals with STAT5. In words: Immunoblotting (Western blot) analysis of STAT5 degradation efficiency of degraders in treated cells. The class given is cell-based. The protocol: Evaluation of the degradation efficiency of degraders may be accomplished by immunoblotting analysis. The representative general protocol is the following:
Cells are maintained in the appropriate culture medium with 10% FBS at 37° C. and an atmosphere of 5% CO2. Cell lines are used within three months of thawing fresh vials. Cells are lysed 1× Cell Lysis Buffer (Cell Signaling Technology, #9803), resolved by SDS-PAGE NuPAGE gel (Thermo Fisher Scientific), and transferred to a PVDF membrane (Millipore). Membranes are blocked using Odyssey TBS Blocker Buffer (LI-COR). IRDye 680RD and 800CW Dye-labeled secondary antibodies (LI-COR) are used. The washed membranes are scanned using Odyssey CLx imager (LI-COR). The intensity of Western blot signaling is quantitated using the Odyssey software. Primary antibodies used are: STAT5 Rabbit mAb (Cell Signaling Technology, #94205), STAT6 Rabbit mAb (Cell Signaling Technology, #5397) and GAPDH mouse monoclonal antibody (Santa Cruz Biotechnology, sc-47724).
To evaluate the degradation efficiency of degraders, immunoblotting analysis was performed. The general protocol is the following.
About 1 million cells for each data point were treated with compounds at indicated concentrations and durations. Untreated and treated cells in cell culture medium were transferred into tubes, followed by centrifugation at 3,000 rpm and 4° C. for 6 min Supernatants were removed from tubes and radioimmunoprecipitation assay (RIPA) lysis buffer supplemented with 1% protease inhibitor cocktail (Fisher Scientific cat. PI87786) and phosphatase inhibitor (Roche cat. 04906837001) were added to tubes containing the remaining cell pellets. The tubes were then left on ice for 30 min and placed in a −80° C. freezer. Subsequently they were thawed in 37° C. water, then centrifuged at 14,000 rpm for 15 min and the cell lysates transferred to new tubes. The concentration of total proteins in each tube was calculated using the Pierce BCA protein Assay kit (cat. 23225). Based on the calculated protein concentration, cell lysates containing approximately the same amount of proteins were transferred to new tubes, then distilled water and 4× Protein Sample Loading Buffer for Western Blots (LI-COR cat. 928-40004) supplemented with 20% of mercaptoethanol (Sigma Aldrich cat. M6250) were added on ice. The cell lysates were then reduced and denatured at 95° C. for 5 min. From the tubes containing cell lysates an equal amount of protein samples (20-40 μg) was loaded into precast 8%, 10%, 4%-12%, or 4%-20% Tris-glycine gels (Novex) filled with Tris-glycine SDS running buffer. After the proteins were resolved, they were transferred onto Immobile-FL PVDF Membrane (Millipore Sigma cat. IPFL00010), using Mini Trans-Blot Electrophoretic Transfer Cell (Bio-Rad 1703930). The membranes were blocked with Intercept Blocking Buffer (LI-COR cat. 927-70001) in LI-COR Western Blot boxes for 1 h at rt. The membranes were washed with 1× Tris-buffered saline-Tween-20 (TBST, 1× solution was made from 20×TBST solution, ThermoFisher Scientific cat. 28360) for 5 min 4 times. The membranes were incubated overnight at 4° C. in Intercept Blocking Buffer supplemented with primary antibodies (normally antibody:buffer 1:1000) and Tween-20. The membranes were washed with TBST for 5 min 4 times and were incubated with Intercept Blocking Buffer supplemented with IRDye 800CE Secondary Antibodies, IRDye 680RD Secondary Antibodies (LI-COR biosciences), Tween-20, and 10% SDS solution, for 1 h at rt. The membranes were then washed with TBST for 5 min 4 times and rinsed with deionized water before drying and scanning with Odyssey Dlx Amazing System (LI-COR). The immunoblots were finally quantified by the software.
On the technique in general: A western blot detects proteins with antibodies after separation by electrophoresis.

Setting [1] is: MOLM-16 cells, numeric bound, read-out: DC50 S5 MOLM-16.
Where [2] appears, read: KU-812 cells, read-out: DC50 S5 KU-812.
Setting [3] is: SKNO1 cells, read-out: DC50 S5 SKNO1.

With `CC(C)(C)[C@H](NC(=O)c1cc2cc(C(F)(F)P(=O)(O)O)ccc2s1)C(=O)N1C[C@H](OCc2ccc(C#Cc3cccc4c3CN(C3CCC(=O)NC3=O)C4=O)cc2)C[C@H]1C(=O)Nc1ncc(-c2ccccc2)s1` (stereo partly drawn) [Compound 632, ((2-(((2S)-1-((2S,4R)-4-((4-((2-(2,6-dioxopiperidin-3-yl)-1-oxoisoindolin-4-yl)ethynyl)benzyl)oxy)-2-((5-phenylthiazol-2-yl)carbamoyl)pyrrolidin-1-yl)-3,3-dimethyl-1-oxobutan-2-yl)carbamoyl)benzo[b]thiophen-5-yl)difluoromethyl)phosphonic acid], the 50% degradation concentration (DC50) under setting [1] was over 0.3 µM.

Regarding `CC(C)(C)[C@H](NC(=O)c1cc2cc(C(F)(F)P(=O)(O)O)ccc2s1)C(=O)N1CCC[C@H]1C(=O)N(CCC(=O)NCCCC#Cc1cccc2c1CN(C1CCC(=O)NC1=O)C2=O)c1ccccc1` (stereo partly drawn) [Compound 633, ((2-(((2S)-1-((2S)-2-((3-((5-(2-(2,6-dioxopiperidin-3-yl)-1-oxoisoindolin-4-yl)pent-4-yn-1-yl)amino)-3-oxopropyl)(phenyl)carbamoyl)pyrrolidin-1-yl)-3,3-dimethyl-1-oxobutan-2-yl)carbamoyl)benzo[b]thiophen-5-yl)difluoromethyl)phosphonic acid], the DC50 reads like this: under setting [2], over 10 µM; under setting [1], over 0.3 µM; under setting [3], 1 to 10 µM.

For the compound `CC(C)(C)[C@H](NC(=O)c1cc2cc(C(F)(F)P(=O)(O)O)ccc2s1)C(=O)N1CCC[C@H]1C(=O)N(CCC(=O)NCCCC#Cc1cccc2c1CN(C1CCC(=O)NC1=O)C2=O)c1ccc(F)cc1` (stereo partly drawn) [Compound 634, ((2-(((2S)-1-((2S)-2-((3-((5-(2-(2,6-dioxopiperidin-3-yl)-1-oxoisoindolin-4-yl)pent-4-yn-1-yl)amino)-3-oxopropyl)(4-fluorophenyl)carbamoyl)pyrrolidin-1-yl)-3,3-dimethyl-1-oxobutan-2-yl)carbamoyl)benzo[b]thiophen-5-yl)difluoromethyl)phosphonic acid], the half-maximal degradation concentration (DC50) reads like this: under setting [1], over 0.3 µM; under setting [3], over 10 µM.

With `CC(C)(C)[C@H](NC(=O)c1cc2cc(C(F)(F)P(=O)(O)O)ccc2s1)C(=O)N1CCC[C@H]1C(=O)N(CCC(=O)NCCCC#Cc1cccc2c1CN(C1CCC(=O)NC1=O)C2=O)c1ccc(Cl)cc1` (stereo partly drawn) [Compound 635, ((2-(((2S)-1-((2S)-2-((4-chlorophenyl)(3-((5-(2-(2,6-dioxopiperidin-3-yl)-1-oxoisoindolin-4-yl)pent-4-yn-1-yl)amino)-3-oxopropyl)carbamoyl)pyrrolidin-1-yl)-3,3-dimethyl-1-oxobutan-2-yl)carbamoyl)benzo[b]thiophen-5-yl)difluoromethyl)phosphonic acid], the half-maximal degradation concentration (DC50) was 1 to 10 µM under setting [2], over 0.3 µM under setting [1] and 1 to 10 µM under setting [3].

Regarding `CC(C)(C)[C@H](NC(=O)c1cc2cc(C(F)(F)P(=O)(O)O)ccc2s1)C(=O)N1CCC[C@H]1C(=O)N(CCC(=O)NCCCC#Cc1cccc2c1CN(C1CCC(=O)NC1=O)C2=O)c1ccc(Cl)c(F)c1` (stereo partly drawn) [Compound 636, ((2-(((2S)-1-((2S)-2-((4-chloro-3-fluorophenyl)(3-((5-(2-(2,6-dioxopiperidin-3-yl)-1-oxoisoindolin-4-yl)pent-4-yn-1-yl)amino)-3-oxopropyl)carbamoyl)pyrrolidin-1-yl)-3,3-dimethyl-1-oxobutan-2-yl)carbamoyl)benzo[b]thiophen-5-yl)difluoromethyl)phosphonic acid], the DC50 under setting [1] was over 0.3 µM and the DC50 under setting [3] is over 10 µM.

As to `CC(C)(C)[C@H](NC(=O)c1cc2cc(C(F)(F)P(=O)(O)O)ccc2s1)C(=O)N1CCC[C@H]1C(=O)N(CCC(=O)NCCCC#Cc1cccc2c1CN(C1CCC(=O)NC1=O)C2=O)c1ccc(I)cc1` (stereo partly drawn) [Compound 637, ((2-(((2S)-1-((2S)-2-((3-((5-(2-(2,6-dioxopiperidin-3-yl)-1-oxoisoindolin-4-yl)pent-4-yn-1-yl)amino)-3-oxopropyl)(4-iodophenyl)carbamoyl)pyrrolidin-1-yl)-3,3-dimethyl-1-oxobutan-2-yl)carbamoyl)benzo[b]thiophen-5-yl)difluoromethyl)phosphonic acid], the DC50 reads like this: under setting [1], over 0.3 µM; under setting [3], 0.1 to 1 µM.

`CC(C)(C)[C@H](NC(=O)c1cc2cc(C(F)(F)P(=O)(O)O)ccc2s1)C(=O)N1CCC[C@H]1C(=O)N(CCC(=O)NCCCCC#Cc1cccc2c1CN(C1CCC(=O)NC1=O)C2=O)c1ccc(Cl)cc1` (stereo partly drawn) [Compound 638, ((2-(((2S)-1-((2S)-2-((4-chlorophenyl)(3-((6-(2-(2,6-dioxopiperidin-3-yl)-1-oxoisoindolin-4-yl)hex-5-yn-1-yl)amino)-3-oxopropyl)carbamoyl)pyrrolidin-1-yl)-3,3-dimethyl-1-oxobutan-2-yl)carbamoyl)benzo[b]thiophen-5-yl)difluoromethyl)phosphonic acid]: the 50% degradation concentration (DC50) (MOLM-16 cells, class symbols, read-out: DC50 S5 MOLM-16) is 0.1 to 1 µM.

For `CC(C)(C)[C@H](NC(=O)c1cc2cc(C(F)(F)P(=O)(O)O)ccc2s1)C(=O)N1CCC[C@H]1C(=O)N(CCC(=O)NCCCCC#Cc1cccc2c1CN(C1CCC(=O)NC1=O)C2=O)c1ccc(Cl)c(F)c1` (stereo partly drawn) [Compound 639, ((2-(((2S)-1-((2S)-2-((4-chloro-3-fluorophenyl)(3-((6-(2-(2,6-dioxopiperidin-3-yl)-1-oxoisoindolin-4-yl)hex-5-yn-1-yl)amino)-3-oxopropyl)carbamoyl)pyrrolidin-1-yl)-3,3-dimethyl-1-oxobutan-2-yl)carbamoyl)benzo[b]thiophen-5-yl)difluoromethyl)phosphonic acid], the DC50 by setting is: under setting [1], over 0.3 µM; under setting [3], over 10 µM.

`CC(C)(C)[C@H](NC(=O)c1cc2cc(C(F)(F)P(=O)(O)O)ccc2s1)C(=O)N1CCC[C@H]1C(=O)N(CC(=O)NCCCCC#Cc1cccc2c1CN(C1CCC(=O)NC1=O)C2=O)c1ccc(F)cc1` (stereo partly drawn) [Compound 640, ((2-(((2S)-1-((2S)-2-((2-((6-(2-(2,6-dioxopiperidin-3-yl)-1-oxoisoindolin-4-yl)hex-5-yn-1-yl)amino)-2-oxoethyl)(4-fluorophenyl)carbamoyl)pyrrolidin-1-yl)-3,3-dimethyl-1-oxobutan-2-yl)carbamoyl)benzo[b]thiophen-5-yl)difluoromethyl)phosphonic acid]: the DC50 under setting [1] is over 0.3 µM.

As for `CC(C)(C)[C@H](NC(=O)c1cc2cc(C(F)(F)P(=O)(O)O)ccc2s1)C(=O)N1CCC[C@H]1C(=O)N(CC(=O)NCCCCC#Cc1cccc2c1CN(C1CCC(=O)NC1=O)C2=O)c1ccc(Cl)cc1` (stereo partly drawn) [Compound 641, ((2-(((2S)-1-((2S)-2-((4-chlorophenyl)(2-((6-(2-(2,6-dioxopiperidin-3-yl)-1-oxoisoindolin-4-yl)hex-5-yn-1-yl)amino)-2-oxoethyl)carbamoyl)pyrrolidin-1-yl)-3,3-dimethyl-1-oxobutan-2-yl)carbamoyl)benzo[b]thiophen-5-yl)difluoromethyl)phosphonic acid], the 50% degradation concentration (DC50) was over 0.3 µM under setting [1] and over 10 µM under setting [3].

Turning to `CC(C)(C)[C@H](NC(=O)c1cc2cc(C(F)(F)P(=O)(O)O)ccc2s1)C(=O)N1CCC[C@H]1C(=O)N(CCC(=O)NCCCC#Cc1cccc2c1CN(C1CCC(=O)NC1=O)C2=O)c1ccc(C#N)cc1` (stereo partly drawn) [Compound 642, ((2-(((2S)-1-((2S)-2-((4-cyanophenyl)(3-((5-(2-(2,6-dioxopiperidin-3-yl)-1-oxoisoindolin-4-yl)pent-4-yn-1-yl)amino)-3-oxopropyl)carbamoyl)pyrrolidin-1-yl)-3,3-dimethyl-1-oxobutan-2-yl)carbamoyl)benzo[b]thiophen-5-yl)difluoromethyl)phosphonic acid], the DC50 runs as follows: under setting [1], over 0.3 µM; under setting [3], over 10 µM.
